Laboratory results from US7473708B2, “Agents with leukotriene B4-like antiviral (enveloped RNA) activities” (priority 1996, dated 2009).
“And” between values parts separate entries of the source, which are not always exact repeats. Equal entries are not always repeated. “Also recorded” adds a separate entry of the source.

Columns and labels:
[1] = system: HSV-1 (strain McIntyre); assay: Detection of specific HSV-1 antigen in HSV-1-infected PBMC (immunofluorescence); format: cell-based, human; conditions: specific antiserum from a chronically infected donor
Protocol: Synthesis of the viral antigen was inhibited by 60% in the presence of 100 nM LTB4 (FIG. 4). The results illustrated in FIG. 4 are representative of five (5) other experiments.
(§1) PBMC were infected with EBV and HSV-1 and treated or not with 100 nM of analogs of LTB4 such as 20-OH-LTB4, LTA3 methyl ester, 12(R)-HETE and 5(S), 15(S)-diHETE. After six days of culture, the presence of EBNA antigen (a consequence of EBV infection) was evaluated by the ACIF test, as described in Example I. Similarly, the presence of HSV-1 antigen in PBMC was evaluated by immunofluorescence using an antiserum obtained from a chronically infected donor as described above in section entitled “Detection of Specific HSV-1 Antigen”. […] The results illustrated in Table 1 are representative of three other experiments.

[2] = system: HIV-1; assay: Synthesis of HIV-1 particles in J1.1 cells (end-point titration, TCID50); format: cell-based; conditions: for percentage of inhibition of HIV-1 particles synthesis: 48 hours
Protocol: This set of experiments was carried out with the J1.1 cell line, a latently […] cell line derived from the parental cell line Jurkat E6.1. J1.1 cells were resuspended at a density of 10^6 cells/ml in culture medium (RPMI-1640 supplemented with 10% FBS) and were stimulated with the phorbol ester PM-A (20 ng/ml) in the absence or the presence of increasing concentrations of LTB4 (0,30, 100 nM). LTB4 was again added (to the same concentrations) 24 hours after the initiation of the cultures.
End-point titration was carried out in flat-bottom microtiter wells using four parallel series of ten-fold dilutions of cell-free supernatants. After 5 to 7 days of incubation with MT-4 cells, cell-free supernatants were harvested and tested for the major viral core p24 protein by a commercially available enzymatic assay. The TCID50 was calculated by the method of Reed and Muench.

[3] = system: coronavirus strain HCoV-OC43; assay: Human coronavirus infection in lungs of mice; format: in vivo; conditions: for coronavirus viral load in lungs, per mouse: day 6
Protocol: The antiviral effect of LTB4 in controlling pneumonia caused by coronavirus was evaluated in an in vivo model using C57BL/6 mice (8 day old). Mice were infected (n=6/group) intranasally with 10 μl of coronavirus suspension (10^4 PFU, strain HCoV-OC43). Twenty-four hours post-infection, mice were treated intranasally with a placebo or with varying doses of LTB4 (5 ng/dose or 50 ng/dose). Mice were treated once a day during 5 days, and were sacrificed and autopsied on day 6. Lungs of mice were surgically removed and the viral load was titrated on HRT-18 cell line.

[4] = system: EBV, strain B95-8; assay: EBV-induced clump formation in peripheral blood mononuclear cells; format: cell-based, human; conditions: EBV-infected PBMC, ten to twelve days of culture
Protocol: Peripheral blood mononuclear cells (PBMC) were obtained from healthy donors after dextran sedimentation and centrifugation on Ficoll-Paque™ gradients as previously described by Boyum A. (Scand. J. Immunol., 1976, 5(5):9). […] When indicated, EBV-infected PBMC were simultaneously treated (single addition) with different concentrations of LTB4, i.e. 0.3, 3.0 and 30 nM, respectively. […] Cells were cultured in microplates and the clumps were counted in each well. […] NS: nonstimulated cells.

[5] = system: EBV; assay: Detection of Epstein-Barr Nuclear Antigen (EBNA) in EBV-infected PBMC (ACIF test); format: cell-based, human; conditions: 100 nM LTB4, added days 0, 3, 6, 9; ten days of culture
Protocol: After ten days of culture, cells were harvested for determination of the presence of Epstein-Barr Nuclear Antigen (EBNA), a consequence of EBV infection. Preparation of cell smears, fixation and detection of EBNA by the anti-complement immunofluorescence (ACIF) test were carried out as described by Reedman B. M. and Klein G. (Int. J. Cancer, 1973, 11:499). Smears were prepared by spreading 50 μl of a concentrated suspension of washed cells (2×10^6/ml) on clean slides, air dried and fixed in cold acetone (−20° C.) during 10 minutes. Human serum (50 μl) from EBV seropositive donor was used as a source of complement. Slides were incubated at room temperature in a humid chamber during 45 minutes. Slides were then washed three times in phosphate buffer saline (PBS) and stained with 50 μl of fluorescein-5-isothiocyanate (FITC “Isomer I”)-conjugated goat IgG fraction anti-human complement C3 (Cappel Research Products, Durham, N.C.) during 60 minutes at room temperature in a humid chamber. Slides were washed in PBS (3 times), mounted in PBS:glycerol 1:1 and examined. Raji and U937 cells were used as positive and negative controls, respectively. The percentage of EBNA-positive cells was decreased by more than 55% with 30 nM LTB4, and by more than 70% with 100 nM LTB4 (FIG. 2). The results illustrated in FIG. 2 are representative of six (6) other experiments.
as §1

CCCCC/C=C\C[C@@H](O)/C=C/C=C/C=C\[C@@H](O)CCCC(=O)O [LTB4, 5S,12R-dihydroxy-6,8,10,14 (Z,E,E,Z)-eicosatetraenoic acid]
inhibition of synthesis of HSV-1 antigen [1]: 75% | percentage of inhibition of HIV-1 particles synthesis ([2]; LTB4 30 nM): 49% and 50% and 56% | percentage of inhibition of HIV-1 particles synthesis ([2]; LTB4 100 nM): 55% and 61% and 79% | inhibition of formation of new HIV-1 particles ([2]; concentration not stated (summary)): > 55% | coronavirus viral load in lungs, per mouse ([3]; LTB4 5 ng/dose/mouse intranasal once a day 5 days): N.D. (below detection limit of 32 TCID50/lungs) | coronavirus viral load in lungs, per mouse ([3]; LTB4 50 ng/dose/mouse intranasal once a day 5 days): N.D. (below detection limit of 32 TCID50/lungs) | number of coronavirus particles in lungs versus placebo ([3]; infected mice): significantly reduces; also recorded: reduced | formation of clumps [4]: markedly affected the formation of clumps | decrease of percentage of EBNA-positive cells [5]: more than 70%
